For this assay, the system named is T1, CfRhoPDE1.
T1 construct: full-length with N-terminal YFP tag kept; gene codon-optimised to Mus musculus, pGEMHE vector; Xenopus oocyte membrane fraction; all-trans retinal supplied
Nature of the assay: cGMP hydrolysis by oocyte membranes, chemiluminescent immunoassay, Michaelis-Menten fit. It is filed as biochemical, Choanoeca flexa. The note with it: dark; pH 7.3, 5 mM MgCl2, 100 mM NaCl, 5 mM DTT; 1-100 μM cGMP.

As usually defined, the Km is the substrate concentration at which the rate is half of its maximum.

Turning to `Nc1nc2c(ncn2[C@@H]2O[C@@H]3COP(=O)(O)O[C@H]3[C@H]2O)c(=O)[nH]1` [cGMP], the Km is approximately 15 µM.

Values taken from PMC8774190, “Characterization and Modification of Light-Sensitive Phosphodiesterases from Choanoflagellates” (Biomolecules, 2022).
